Source: the supplement of paper PMC13380429

Tests used:
Details in all cases: 72 h
[1] = tested on: U2OS; test: drug sensitivity score (DSS) for viability; higher = more toxic; extreme values may be limits of the assay
[2] = tested on: Calu-3; test: as above
[3] = tested on: HepG2; test: as above
[4] = tested on: Caco-2; test: as above
[5] = tested on: Vero E6; test: as above
[6] = tested on: U2OS; test: cell viability relative to DMSO; higher = less toxic
[7] = tested on: Calu-3; test: as above
[8] = tested on: HepG2; test: as above
[9] = tested on: Caco-2; test: as above
[10] = tested on: Vero E6; test: as above
[11] = tested on: U2OS; test: relative viability EC50 (midpoint between 100% and the lowest measured viability); higher = less toxic
[12] = tested on: Calu-3; test: as above
[13] = tested on: HepG2; test: as above
[14] = tested on: Caco-2; test: as above
[15] = tested on: Vero E6; test: as above

SMILES	drug sensitivity score [1]	drug sensitivity score [2]	drug sensitivity score [3]	drug sensitivity score [4]	drug sensitivity score [5]	cell viability ([6]; 1 nM) [%]	cell viability ([6]; 10 nM) [%]	cell viability ([6]; 100 nM) [%]	cell viability ([6]; 1000 nM) [%]	cell viability ([6]; 10000 nM) [%]	cell viability ([7]; 1 nM) [%]	cell viability ([7]; 10 nM) [%]	cell viability ([7]; 100 nM) [%]	cell viability ([7]; 1000 nM) [%]	cell viability ([7]; 10000 nM) [%]	cell viability ([8]; 1 nM) [%]	cell viability ([8]; 10 nM) [%]	cell viability ([8]; 100 nM) [%]	cell viability ([8]; 1000 nM) [%]	cell viability ([8]; 10000 nM) [%]	cell viability ([9]; 1 nM) [%]	cell viability ([9]; 10 nM) [%]	cell viability ([9]; 100 nM) [%]	cell viability ([9]; 1000 nM) [%]	cell viability ([9]; 10000 nM) [%]	cell viability ([10]; 1 nM) [%]	cell viability ([10]; 10 nM) [%]	cell viability ([10]; 100 nM) [%]	cell viability ([10]; 1000 nM) [%]	cell viability ([10]; 10000 nM) [%]	relative viability EC50 [11] [µM]	relative viability EC50 [12] [µM]	relative viability EC50 [13] [µM]	relative viability EC50 [14] [µM]	relative viability EC50 [15] [µM]
Cn1cc(C2=C(c3cn(C4CCN(Cc5ccccn5)CC4)c4ccccc34)C(=O)NC2=O)c2ccccc21 [enzastaurin]	0	0	0	0	0	102	101	102	97.4	101	109	97.3	118	108	109	105	113	94	98	106	98.6	104	93.2	98.4	100	101	107	103	105	98.9	> 10	> 10	> 10	> 10	> 10
CC1(C)OC2(C)C(O)CC1CC2O (stereo not given) [epomediol]	0	0	0	0	0	108	97.3	98.1	97.7	102	97.1	82.6	97.5	90.9	105	99.9	98.1	96.2	112	101	98.7	92.1	98.2	95	101	98.7	97	98	98.7	94	> 10	> 10	> 10	> 10	> 10
CC[C@H]1OC(=O)[C@H](C)[C@@H](O[C@H]2C[C@@](C)(OC)[C@@H](O)[C@H](C)O2)[C@H](C)[C@@H](O[C@@H]2O[C@H](C)C[C@H](N(C)C)[C@H]2O)[C@](C)(O)C[C@@H](C)C(=O)[C@H](C)[C@@H](O)[C@]1(C)O [erythromycin]	0	0.5	0	0	0	104	102	102	98	101	94.2	102	97.5	90	86.9	100	83.5	98.1	91.4	90.4	97.9	100	97.2	94.4	96.4	101	97.9	101	97.4	99.5	> 10	> 10	> 10	> 10	> 10
CCOC(=O)[C@@H](N)Cc1ccc(O)c(O)c1 [etilevodopa]	0	0.3	0	2.8	0	92.6	95.7	98.3	96.3	99.3	103	95.6	92.2	88.8	94	86.2	96	88.1	99.1	92.5	94	107	84.2	85.8	92.8	101	89.7	89.7	98.9	111	> 10	> 10	> 10	> 10	> 10
CC1CC(OC(=O)C(O)c2ccccc2)CC(C)(C)N1C (stereo not given) [eucatropine]	0	0	0	0	0	104	104	97.8	100	100	101	100	92.5	95	107	93.5	88.3	95.3	90	93.3	99.3	103	97	99.2	92.6	97.8	102	98.2	102	98.8	> 10	> 10	> 10	> 10	> 10
CC(=O)OCC(CCn1cnc2cnc(N)nc21)COC(C)=O [famciclovir]	0	0	0	1.4	0	100	104	95	102	95.5	104	99.4	91.1	106	93.9	103	98.4	103	96.8	100	91.3	101	105	87.4	82.8	99.7	102	98.7	96.9	100	> 10	> 10	> 10	> 10	> 10
O=c1[nH]c(=O)n([C@H]2C[C@H](O)[C@@H](CO)O2)cc1F [floxuridine]	0.3	0.5	19	24.9	11.8	95.3	99.9	101	105	82.6	101	85.1	93.6	88.9	89	109	66.2	59.4	50	43.1	88.4	62	42	29.9	44.6	97.2	91.8	74.6	53.6	42.2	> 10	> 10	0.0144	0.0088	0.134
N=C(N)NC(=O)Cc1c(Cl)cccc1Cl [guanfacine]	0	0	0	0	0	102	93.1	104	97.4	100	92.7	83.6	98.9	91.7	99.1	88.5	95.2	93.3	94	101	93.9	95.7	110	104	100	93.8	105	101	104	89.8	> 10	> 10	> 10	> 10	> 10
NCCc1c[nH]cn1 [histamine]	0	0	0	0	0	94.9	99.7	97.5	103	102	99.4	100	101	95.7	109	100	102	103	100	97.5	90.8	105	101	110	104	99.4	98.2	93.5	97.5	104	> 10	> 10	> 10	> 10	> 10
C[C@]12CCC(=O)C=C1CC[C@@H]1[C@@H]2[C@@H](O)C[C@@]2(C)[C@H]1CC[C@]2(O)C(=O)COP(=O)(O)O [hydrocortisone-phosphate]	0	0	0.1	0	0	101	101	97.1	100	95	98.3	102	98.5	99.8	93.8	99.2	99.8	105	89.5	94.3	100	101	103	110	94.1	106	100	106	100	104	> 10	> 10	> 10	> 10	> 10
NC(=O)NO [hydroxyurea]	0	0	0	0.1	0	97.1	98.2	102	96	99.8	104	89.4	99	103	95.2	106	81.9	125	115	103	96.5	87	103	77.9	94.1	95.6	101	101	97.1	112	> 10	> 10	> 10	> 10	> 10
CCC(C)n1ncn(-c2ccc(N3CCN(c4ccc(OCC5COC(Cn6cncn6)(c6ccc(Cl)cc6Cl)O5)cc4)CC3)cc2)c1=O (stereo not given) [itraconazole]	0	0	0	0	0	92.1	99.5	93.9	102	109	91.1	102	101	104	98.6	92.7	94.9	101	92.7	97.6	103	101	111	99.7	97.2	92.9	87.4	87.2	87.9	108	> 10	> 10	> 10	> 10	> 10
CC1(C)Oc2ccc(C#N)cc2[C@@H](N2CCCC2=O)[C@@H]1O [levcromakalim]	0	0	0	0	0	103	102	99.4	98	101	85.7	105	91.8	104	102	109	105	98	101	96.2	96.5	99.7	99.1	88.5	99.6	92.1	96.6	97.1	97.2	93.7	> 10	> 10	> 10	> 10	> 10
Clc1cccc(C(c2ccc3[nH]cnc3c2)n2ccnc2)c1 (stereo not given) [liarozole]	0	0	0	0	0	97.8	95	95.5	93.9	96.3	99	96.1	93.8	103	101	99.6	104	99.3	111	89.3	97.2	87.8	98.7	93.9	85.4	94.2	90.5	94.8	94.8	95	> 10	> 10	> 10	> 10	> 10
CC(=O)N(C)c1cc(-c2ccnc3c(C(=O)c4cccs4)cnn23)ccc1F [lorediplon]	0	0	1.1	0.3	0	99.2	97	97	96.7	96.6	90.8	106	98.6	104	99.6	94	107	95.6	96.1	80	100	93.9	87.5	95.1	88.1	97.9	98.9	93.9	96.3	91	> 10	> 10	> 10	> 10	> 10
CN1CCc2c(c3ccccc3n2Cc2ccccc2)C1 [mebhydrolin]	0	0	3.1	0	0	96.5	102	98.5	98.2	95.3	106	95.8	106	104	104	94.3	102	106	77	94.2	90.3	92.8	90.4	101	100	106	99.4	99.9	94.1	89.6	> 10	> 10	> 10	> 10	> 10
Cc1cccc(C)c1NC(=O)C1CCCCN1C (stereo not given) [mepivacaine]	0	0	0	0	0	98	95.8	99.4	97.4	104	89.7	97.8	93.9	99.6	103	96.8	107	105	115	104	92.1	81.4	102	90.6	108	96.3	91.4	99.2	103	107	> 10	> 10	> 10	> 10	> 10
COc1ccc(O)cc1 [mequinol]	0	0	1.7	0	0	100	109	96.8	98.7	101	104	100	105	94.9	92.8	103	90	85.6	92.9	79.7	97.8	98.5	105	104	97.9	96.8	94.1	105	103	95.3	> 10	> 10	> 10	> 10	> 10
O=C(O)CC(S)C(=O)O (stereo not given) [mercaptosuccinic-acid]	0	0	0	0	0	103	104	94.3	102	96.2	102	101	93.5	94.7	97.7	93.1	93.7	94.9	96.3	92.7	94	106	91.2	95.7	99.7	96.1	99.8	96.8	97.4	99.3	> 10	> 10	> 10	> 10	> 10
CC[N+](C)(CC)CCOC(=O)C1c2ccccc2Oc2ccccc21 [methantheline]	0	0	0	0	0	99.1	100	100	104	97.8	99.9	96.2	103	106	88.9	102	88.7	97.9	79.8	97.5	91.6	108	89.1	99	96.3	95.3	97	94.4	93.2	93.8	> 10	> 10	> 10	> 10	> 10
O=C(O)[C@H](CC(=O)N1C[C@H]2CCCC[C@H]2C1)Cc1ccccc1 [mitiglinide]	0	0	0	0	0	92.2	104	95.3	116	96.4	86.3	93	88.2	92.8	104	98.2	84.2	91.5	94.6	104	99.9	96.4	95	101	94.9	98.4	104	101	98.5	103	> 10	> 10	> 10	> 10	> 10
O=c1c(-n2ccnn2)c[nH]n1-c1cc(N2CCOCC2)ncn1 [molidustat]	0	0	0	0	0	98.1	97.7	94.7	103	91.4	78.6	97.9	87.8	104	88	104	95.4	94.8	93.2	95.3	100	107	100	97.2	96	108	99.4	104	95.8	90.9	> 10	> 10	> 10	> 10	> 10
CCOC(=O)C1=C(C)NC(=S)NC1c1cccc(O)c1 (stereo not given) [monastrol]	0	0	0	0	0	103	99	103	98.7	104	89.7	95.1	95.6	100	103	99.3	107	96.2	99.4	101	103	94.6	94.1	96	96.8	104	108	102	97.6	97.9	> 10	> 10	> 10	> 10	> 10
